Laboratory results taken from patent publication US5837282A, “Ionophore-mediated liposome loading” (priority 1996, dated 1998).

Key:
[1] = In vitro drug leakage from LUVs in 50% mouse serum at 37 °C; format: in vitro ADME; conditions: SPM/Chol LUVs
Protocol: In this assay, equal volumes of the liposomal drug formulation and of mouse serum are combined in a test tube and incubated at 37° C. Leakage of the drug from the LUVs is assayed by removal of aliquots for spin column analysis.
An in vitro leakage assay has been designed which employs mouse serum to assess the relative retentive properties of the various liposomal systems. The assay is extremely simple, involving the incubation of equal volumes of mouse serum and LUV (loaded with drug) at 37° C., followed by the application of aliquots to spin columns to quantitate the change in D/L ratio with time.

[2] = Drug uptake/leakage after removal of nigericin (spin column, dialysis); conditions: SPM/Chol LUVs; 300 mM KH2PO4 (printed 300 mm); nigericin 1 ng/μmol lipid; at 1 hr
Protocol: Uptake was monitored for LUVs containing 300 mM K2 SO4 at a nigericin concentration of 1 ng/μmol lipid (.box-solid.), and for LUVs which were preincubated with nigericin for 5 min at 60° C., and then passed down a spin column prior to addition of the drug (.circle-solid.).
Thus, an aliquot of nigericin (1 ng NIG/μmol lipid) was added to a sample of SPM/Chol LUVs containing 300 mm KH2 PO4 and the temperature was increased to 60° C. for 5 min to ensure association of nigericin with the lipid. The sample was then exhaustively dialysed at room temperature against 300 mM sucrose for 20 hours, following which an aliquot was passed down a spin column prior to drug loading with VINC (FIG. 10B).
To ensure that such was not the case, control uptake experiments were performed on LUVs containing ethylammonium sulfate and amylammonium sulfate which were subjected to the same conditions.

[3] = Vincristine uptake (loading) into LUVs using nigericin/K+ systems; format: physicochemical; conditions: 60 °C
Protocol: (§1) [^14 C]CIPRO was diluted with cold CIPRO and the specific activity was determined by liquid scintillation counting and absorbance spectroscopy. […] For experiments involving [^14 C]CIPRO, the lipid mixtures were labeled using trace amounts of [^3 H]CHE. For [^3 H]VINC uptake the lipid was labeled with [^14 C]CHE. Lipid specific activities were determined by liquid scintillation counting and by quantification of phospholipid via phosphate assays.
As with CIPRO, no uptake was observed prior to the addition of nigericin (arrow). […] A further improvement was obtained (93-95%) for LUVs prepared in 300 mM K2 SO4 pH 7.4 with an external pH of 6 (either 20 mM HEPES 300 mM sucrose or 20 mM MES 300 mM sucrose) (see FIG. 9B).

[4] = Vincristine uptake (loading) into LUVs using A23187 / Mn2+ systems; format: physicochemical; conditions: SPM/Chol LUVs, 300 mM MnSO4, 60 °C; for %-uptake / Retention: D/L 0.05, A23187 0.1 μg/μmol lipid
Protocol: as §1
Excellent uptake and retention of VINC can also be obtained using Mn^2+ /A23187 with SPM/Chol LUVs (see FIG. 8). Less than 5% uptake was observed when there was no EDTA present in the external medium of Hepes-buffered sucrose (pH 7.5). […] However, extremely poor uptake (40%) is observed at lower external pHs when using 300 mM sucrose 3 mM EDTA.

in vivo = conditions: mouse, iv; for half-life: 2 mg/kg
Protocol: Lipid was measured using [^14 C]cholesteryl hexadecyl ether as a tracer. The %-retention is defined as the D/L ratio at time t divided by the initial measured drug to lipid ratio.
SPM/Chol vesicles (100 nm) were used (55:45; mole %). The vesicles were prepared in a 300 mM K2 SO4 solution or 300 mM MnSO4 and the external medium was exchanged with 300 mM sucrose, 20 mM HEPES, pH 7.0 by overnight dialysis. […] Uptake of the drug was accomplished in the following manner: to an aliquot of liposomes was added either nigericin (1 ng per μmol of lipid) or A23187 (0.1 ,μg/μmol lipid) along with an appropriate amount of drug. For the A23187 experiments, EDTA was present in the external medium at 30 mM.
Each mouse was injected via a lateral tail vein with 200 μL total volume. […] At varying time points, mice were anaesthetized and blood was collected via cardiac puncture. Blood was immediately centrifuged at 500 g and plasma was collected for lipid and drug determination.
Each drug was loaded using several methods, and was injected at time 0 into mice. At the indicated times, samples were withdrawn and the D/L ratio of the recovered LUVs was determined.

[5] = literature; cited from earlier work
[6] = Transmembrane ΔpH measured with [14C]methylamine after vincristine uptake; format: physicochemical; conditions: DSPC/Chol LUVs; 300 mM K2-tartrate pH 7.4; nigericin 1 ng/μmol lipid; external HEPES-buffered sucrose pH 5.3-6.3
Protocol: Uptake of VINC in response to transmembrane gradients of K2 -tartrate has also been investigated in DSPC/Chol LUVs (Table 2). […] The ionophore concentration was 1 ng NIG/μmol lipid.

[7] = SPM/Chol LUVs, 300 mM KH2PO4, D/L 0.05 wt:wt, nigericin 1 ng/μmol lipid, external 300 mM sucrose
[8] = external 300 mM sucrose + 3 mM EDTA

Which “retention in mouse serum, K+/nigericin with phosphate or tartrate salts, or sulfate salts with external pH of 6” value [1] does the source give for `CC[C@]1(O)C[C@H]2CN(CCc3c([nH]c4ccccc34)[C@@](C(=O)OC)(c3cc4c(cc3OC)N(C=O)[C@H]3[C@@](O)(C(=O)OC)[C@H](OC(C)=O)[C@]5(CC)C=CCN6CC[C@]43[C@@H]65)C2)C1` [Vincristine, vincristine] here?
The value was “better retention”.

And the “retention of drug in mouse serum, Mn2+/A23187 versus K+/nigericin system” value [1]?
The value was “better retention”.

And the “retention in mouse serum, Mn2+/A23187 versus LUVs loaded using methylammonium sulfate” value ([1]; results not shown)?
The value was “similar”.

And the “uptake after 20 h dialysis and spin column” value [2]?
The value was 60%.

What about the Retention ([3]; DSPC/Chol LUVs, 300 mM K2-tartrate pH 7.4, D/L 0.05 wt:wt, nigericin 1 ng/μmol lipid, external 300 mM sucrose + 20 mM HEPES pH 5.3-6.3) of the same molecule?
Its Retention is “excellent”.

And the “%-uptake” value ([3]; DSPC/Chol LUVs, 300 mM K2-tartrate pH 7.4, D/L 0.05 wt:wt, nigericin 1 ng/μmol lipid, external 300 mM sucrose + 20 mM HEPES pH 5.3-6.3 (text: within 15 min))?
The value was 85-90%.

What about the “%-uptake” value ([3]; SPM/Chol LUVs, 300 mM K2-tartrate pH 7.4, D/L 0.05 wt:wt, nigericin 1 ng/μmol lipid, external 300 mM sucrose + 20 mM MES pH 6.0) of the same molecule?
The value was 70%.

And the “%-uptake” value ([3]; SPM/Chol LUVs, 300 mM K2HPO4, D/L 0.05 wt:wt, nigericin 1 ng/μmol lipid, external 300 mM sucrose)?
Its value is < 5%.

What about the “uptake prior to the addition of nigericin” value ([3]; SPM/Chol LUVs, 300 mM K2SO4) of the same molecule?
Its value is “no uptake”.

And the Retention ([3]; SPM/Chol LUVs, 300 mM K2SO4, external 300 mM sucrose)?
The Retention was “excellent retention”.

And the Retention ([3]; SPM/Chol LUVs, 300 mM K2SO4, external HEPES-buffered sucrose pH 7.5, over 75 minutes)?
Its Retention is “poor retention”.

What about the encapsulation ([3]; SPM/Chol LUVs, 300 mM K2SO4, nigericin 1 ng/μmol lipid, external 300 mM sucrose) of the same molecule?
The encapsulation was ~90%.

What about the uptake ([3]; SPM/Chol LUVs, 300 mM K2SO4, nigericin 1 ng/μmol lipid, external HEPES-buffered sucrose pH 7.5) of the same molecule?
The uptake was 60%.

And the “%-uptake” value ([3]; SPM/Chol LUVs, 300 mM K2SO4 pH 7.4, D/L 0.05 wt:wt, nigericin 1 ng/μmol lipid, external 300 mM sucrose + 20 mM HEPES or MES pH 6.0)?
The value was 92%.

What about the “%-uptake” value ([3]; SPM/Chol LUVs, 300 mM K2SO4 pH 7.4, D/L 0.05 wt:wt, nigericin 1 ng/μmol lipid, external 300 mM sucrose + 20 mM HEPES or MES pH 6.0, listed as VINC) of the same molecule?
The value was 93-95%.

What about the “%-uptake” value [3, 7] of the same molecule?
Its value is 80%.

What about the Retention [3, 7] of the same molecule?
Its Retention is “excellent”.

What about the uptake ([4]; A23187, external Hepes-buffered sucrose pH 7.5, no EDTA) of the same molecule?
The uptake was “Less than 5%”.

And the “%-uptake” value [4, 8]?
Its value is 40%.

What about the Retention [4, 8] of the same molecule?
Its Retention is “excellent”.

And the Retention ([4]; external 300 mM sucrose + 20 mM HEPES 3 mM EDTA pH 7.5)?
Its Retention is “excellent”.

What about the “%-uptake” value ([4]; external 300 mM sucrose + 20 mM HEPES 3 mM EDTA pH 7.5 (text: within one hour)) of the same molecule?
Its value is > 95%.

What about the “%-uptake” value ([4]; external 300 mM sucrose + 20 mM HEPES 3 mM EDTA pH 7.5 (text: within one hour), listed as VINC) of the same molecule?
Its value is “over 95%”.

What about the Retention ([4]; external 300 mM sucrose + 20 mM HEPES 3 mM EDTA pH 7.5, listed as VINC) of the same molecule?
Its Retention is “Excellent”.

What about the “%-uptake” value ([4]; external 300 mM sucrose, no EDTA) of the same molecule?
The value was 5%.

What about the “factor by which drug leakage half-lives differ (citrate vs A23187)” value (in vivo) of the same molecule?
The value was “two”.

And the half-life (in vivo)?
Its half-life is 6 h.

What about the half-life (in vivo; pH 4) of the same molecule?
The half-life was 8.5 h.

And the “in vivo retention, A23187 versus 300 mM citrate pH 4.0” value (in vivo; pH 4)?
The value was “comparable”.

And the “efficacy in liposomally-encapsulated formulations” value [5]?
The value was “equal or increased efficacy”.

What about the “toxicity in liposomally-encapsulated formulations” value [5] of the same molecule?
Its value is “significantly reduced toxicity”.

What about the “ΔpH present following drug uptake” value [6] of the same molecule?
The value was 2.3.
